# Earlier results as cited in article PMC5478869, “New Hydroxycinnamic Acid Esters as Novel 5-Lipoxygenase Inhibitors That Affect Leukotriene Biosynthesis” (Mediators of Inflammation, 2017).
# Tested on: arachidonic acid release
# Conditions: cited from earlier work
structure (smiles),measurement,value
"O=C(/C=C/c1ccc(O)c(O)c1)OCCc1ccccc1 [CAPE (2), Caffeic acid phenethyl ester, reference compound]",Inhibition of liberation of cellular arachidonic acid (previously shown),previously shown to inhibit the liberation of cellular arachidonic acid
